Assay results reported in PMC11979685, “Synthesis of Derivatives of the Antibiotic Albicidin: The N‐Terminal Fragment as Key to Control Potency and Resistance Mediated by the Binding Protein AlbA” (Chemistry (Weinheim an Der Bergstrasse, Germany), 2025).
Values after ≈ are worked out from the molar mass of the structure shown.

Key:
[1] = system: E. coli DSM 1116; test: Qualitative growth inhibition assay in presence of AlbAS; format: cell-based, Escherichia coli
Experimental: Finally, we investigated if synthetic variations of building block A are able to evade the effects of the resistance protein AlbA. Therefore, we carried out a qualitative growth inhibition assay with derivatives 4–24 in presence of an equimolar amount of purified AlbAS. After incubation of the cultures overnight, the growth of the bacteria was evaluated. The ability of AlbAS to sufficiently sequester an albicidin derivative from the supernatant allowed E. coli cells to accumulate in a visible cell pellet. Second, we performed a quantitative transcription‐activation reporter assay[22] to assess transcriptional regulation by AlbAL. The promoter sequence pAlbA was inserted into a reporter vector that encodes the ilux luminescence cassette.[22] The luminescence signals elicited by ligand binding of synthetic variations to AlbAL was compared and normalized to the signal induced by 2nd Gen albicidin 2 and are hereby referred to as relative transcription activation (TA^%). The combination of both assays prompted us to categorize the experimental outcomes (Figure 4) in four groups:
Figure 4 Characterization of AlbA resistance against derivatives 2, 4–24. GIA: Qualitative growth inhibition assay against E. coli DSM 1116. (−): Derivative unable to inhibit the growth of E. coli in presence of AlbAS. (+): Derivative inhibits growth of E. coli in presence of AlbAS. […] For details see SI Figure 9. Transcription activation (TA) assay: luminescence elicited by 2nd Gen albicidin 2 from the TA assay was normalized to 100 % and the luminescence signal of tested derivatives provided: relative luminescence [%]=luminescence [derivative]/luminescence [2]×100 %. Green bars indicate low relative luminescence (<40 %) and red bars indicate high relative luminescence (>50 %). Error bars show the standard deviations of triplicate measurements. TEXT PRINTED IN THE PICTURE: 2: E. coli inhibition +AlbA: − | 4: E. coli inhibition +AlbA: + | 9: E. coli inhibition +AlbA: + | 11: E. coli inhibition +AlbA: + | 12: E. coli inhibition +AlbA: + | 13: E. coli inhibition +AlbA: ~ | 14: E. coli inhibition +AlbA: − | 16: E. coli inhibition +AlbA: − | 17: E. coli inhibition +AlbA: − | 18: E. coli inhibition +AlbA: − | 19: E. coli inhibition +AlbA: − | 20: E. coli inhibition +AlbA: + | 21: E. coli inhibition +AlbA: − | 22: E. coli inhibition +AlbA: − | 23: E. coli inhibition +AlbA: − | 24: E. coli inhibition +AlbA: − […]
1.3 Resistance assessment against AlbA
E. coli strain DSM 1116 was used for all susceptibility testing. E. coli BL21 Star (DE3) cells (Invitrogen) were used for protein expression. LB medium (Lysogeny broth: 10 g/L peptone, 5 g/L yeast extract, 5 g/L NaCl) was used as broth or in agar plates for all experiments. Incubation steps took place at 37°C and 180 rpm shaking if not stated otherwise. Throughout the study, 2nd Gen albicidin 2 was used as albicidin standard due to its better stability, availability and similar activity compared to natural albicidin in presence of resistance factors.[3,4]
AlbA expression and purification
N-terminally His-tagged AlbA was expressed using a pET28a vector as described previously.[5] In brief, E. coli BL21(DE3) cells were transformed with pET28-AlbA plasmid and grown in LB medium with kanamycin. LB broth supplemented with 50 µg/mL kanamycin was inoculated from over-night cultures and grown at 37°C until an OD600 of 0.6 was reached. After induction with 0.2 mM isopropyl β-D-1-thiogalactopyranoside (IPTG) the proteins were expressed at 18°C for 20 h. The cells were harvested by centrifugation (4,000 x G, 20 min), resuspended in lysis buffer (50 mM Tris, pH 8.0, 500 mM NaCl, 10% glycerol) and processed in a cell disruptor (Constant Systems Ltd) at 25 kPsi before centrifugation at 50,000 x G, at 4°C for 45 min. The lysate was incubated with Pure Cube Ni-NTA agarose (Cube Biotech, Germany) at 4°C for 20 min while shaking. The slurry was transferred to empty gravity-flow […]

[2] = system: Bacillus subtilis DSM 10; test: MIC determination (broth microdilution); format: cell-based; settings: DSM10, read-out: MIC B. sub.
Experimental: (§1) After completing the syntheses, the antibacterial activity of A‐variations 4–24 was assessed by determination of MIC values against a basic set of gram‐negative and gram‐positive bacteria (Table 1). The monocyclic derivatives 4–8 featuring a cyano‐, trifluoromethyl‐, methoxy‐ and fluoro‐ substituent in para‐position were very active against the gram–negative E. coli and S. typhimurium strains with MIC values in the same range as 3rd Gen albicidin 3 or ciprofloxacin which is the gold standard for gyrase inhibitors. […] These findings are in agreement with previous studies showing good activities for cyano, trifluoromethyl, methoxy and fluoro substituents in the para‐position of different aromatic rings in the building block A.[12, 13] The activity of the monocyclic derivatives 4–8 against the gram‐positive strains B. subtilis and M. luteus were similar but slightly less pronounced compared to the lead structure 3.
(§2) 1.1 Determination of Minimal Inhibitory Concentrations (MIC)
(§3) Minimal inhibitory concentration (MIC) against selected bacterial strains values were determined according to the ninth edition of the Approved Standard M07-A9.[1] 20 μL of cryo stocks of bacterial strains were suspended in 20 mL LB medium (Lysogeny broth: 10 g/L peptone, 5 g/L yeast extract, 5 g/L NaCl). Following incubation overnight at 37°C, 200 rpm, the test inoculum was adjusted by 0.5 McFarland Standard in cation adjusted Mueller-Hinton broth (BBLTM Mueller-Hinton Broth II, Becton, Dickinson and Company, New Jersey, USA) to approximately 1x10^6 CFU mL-1. 95 μL of the bacterial inoculum were applied per well of a 96-well plate. Albicidin and albicidin derivatives 3−24 were dissolved in DMSO (100%) to an initial concentration of 2560 μg/mL and serially diluted in DMSO (100%). Initial solution and serial dilutions of Ciprofloxacin were prepared in 0.1 N HCL, respectively. 5 μL of each antibiotic dilution were added to the microdilution tray to reach albicidin concentrations of 128 μg/mL to 0.016 μg/mL per well. One row of each well plate served as a growth control without antibiotic substances and another row of the microdilution tray served as sterility control (only MHB II - media). The antimicrobial effect of the solvent (DMSO) was tested by adding 5 μL DMSO to several wells. Purity check and cell titer control were performed according to International S tandard M07-A9 on Mueller-Hinton II Agar (Mueller Hinton II Broth, 15 g/L agar-agar). Both microdilution trays and agar plates were incubated at 30−37°C for 16 h and subsequently analyzed for growth inhibition by naked eye. The following primary panel of microorganisms were purchased from German Collection of Microorganisms and Cell Cultures (DSMZ):
(§4) Escherichia coli DSM 1116
(§5) Micrococcus luteus DSM 1790
(§6) Mycobacterium phlei DSM 750
(§7) Salmonella typhimurium TA100 was kindly provided by Prof. Dr. Vera Meyer (Technische Universität Berlin). […]
(§8) was purchased as part of the single gene knockout library of E. coli K12 BW25113 (Keio collection) from Horizon Discovery group plc (Cambridge, UK).

[3] = system: E. coli BW25113; test: MIC determination (broth microdilution); format: cell-based; settings: Escherichia coli, BW25113; read-out: MIC E. coli BW25113
Experimental: as §1, §2, §3, §4, §5, §6, §7, §8

[4] = system: E. coli DSM1116; test: MIC determination (broth microdilution); format: cell-based; settings: Escherichia coli, DSM1116; read-out: MIC E. coli DSM1116
Experimental: as §1, §2, §3, §4, §5, §6, §7, §8

[5] = system: Micrococcus luteus DSM 1790; test: MIC determination (broth microdilution); format: cell-based; settings: DSM1790, read-out: MIC M. luteus
Experimental: as §1, §2, §3, §4, §5, §6, §7, §8

[6] = system: Mycobacterium phlei DSM 750; test: MIC determination (broth microdilution); format: cell-based; settings: Mycolicibacterium phlei, DSM750; read-out: MIC M. phlei
Experimental: as §1, §2, §3, §4, §5, §6, §7, §8

[7] = system: Salmonella typhimurium TA100; test: MIC determination (broth microdilution); format: cell-based; settings: Salmonella enterica, read-out: MIC S. typh.
Experimental: as §1, §2, §3, §4, §5, §6, §7, §8

[8] = system: E. coli; test: MIC against E. coli in presence of 50 % human serum; format: cell-based; settings: Escherichia coli; E. coli in presence of 50 % human serum; read-out: MICEc 50%HS
[9] = molecular target: E. coli DNA gyrase (Escherichia coli, UniProt P0AES4); test: E. coli gyrase DNA cleavage assay; format: biochemical; design: key to Gyrase inhibition strong+ / weak −: + strong inhibition; − weak inhibition in comparison to compound 16
Experimental: The target activity of the synthesized derivatives was investigated using a DNA cleavage assay with purified and enzymatically active E. coli DNA gyrase[8] (see SI). In this assay, albicidin‐stabilized complexes of gyrase and plasmid DNA are trapped, and subsequently denatured and deproteinated to reveal DNA linearized by gyrase. […] For the best performing compounds, which were able to fully stabilize the cleavage complex at a concentration of 1 μM, the concentrations at half‐maximum cleavage (CC50) were determined (Figure 3).
1.2 Escherichia coli Gyrase Cleavage Inhibition Assay
E. coli gyrase cleavage assays were executed by setting up a master mix including 0.25 µg relaxed plasmid (pBR322) in 35 mM Tris-HCl (pH 7.5), 24 mM KCl, 4 mM MgCl2, 2 mM dithithreitol (DTT), 1.8 mM spermidine, 1 mM ATP, 6.5% (wt/vol) glycerol and 0.1 mg/ml bovine serum albumin per reaction.
Of this stock solution, 13.2 µL was aliquoted for each reaction into 1.5 mL Eppendorf tubes and supplemented with 0.3 µL of the appropriate compound dilution or DMSO with a […] DMSO concentration of 2% per reaction. The reactions were started with 1.5 µL of 50 nM (pre-screening) or 40 nM (IC50 determinations) wt E. coli gyrase in dilution buffer (50 mM Tris-HCl (pH 7.5), 100 mM KCl, 2 mM DTT, 1 mM EDTA, and 50% (wt/vol) glycerol) for a […] volume of 15 µL. Reactions were incubated at 37°C for 30 minutes before addition of 1.5 µL 0.2% (wt/vol) SDS and 0.75 µL proteinase K (0.2 mg/mL) and further incubation at 37°C for 30 minutes to trap cleavage complexes. Reactions were stopped with 15 µL chloroform:isoamyl alcohol (24: 1 v/v) and 15 µL of STEB (40% (wt/vol) sucrose, […] Tris-Cl pH 8, 10 mM EDTA, 0.5 mg/mL bromophenol blue). After brief vortexing and centrifugation at 2,300g for 5 min, 15 µL of the aqueous phase was loaded onto 1% (wt/vol) agarose in TAE (Tris-acetate […] and EDTA […]) gels supplemented with 10 µg/mL ethidium bromide.
The gels were run at 85 V for 2 hours.
DNA was visualized (602/50, UV Trans, auto optimal exposure) with a ChemiDoc MP (Bio-Rad Laboratories Inc., equipped with ImageLab Touch Software v2.0.0.27) and the percentage of cleaved DNA relative to the total amount of DNA per lane was determined with ImageJ software.[2] IC50 curves were generated in GraphPad Prism (v10.0.0) using the non-linear regression curve fit variable slope with four parameters and least squares regression.

[10] = Reverse-phase HPLC retention time as estimate of lipophilicity; format: physicochemical; settings: indicator of lipophilicity
Excerpt: As mentioned before, albicidin 1 is a rather hydrophobic compound and improving its aqueous solubility is desirable. The lipophilicity of drug molecules is commonly characterized by the octanol/water partition coefficient (logP). An alternative approach relies on the correlation between lipophilicity and the retention time (Rt) on a reverse‐phase HPLC column.[31] This approach works well if structurally related compounds are compared as is the case for this SAR study. Rt was thus used to estimate the hydrophilicity of albicidin 1 and its derivatives 2–24 (Table 1).[32]

Sequence of E. coli DNA gyrase (P0AES4 whole entry): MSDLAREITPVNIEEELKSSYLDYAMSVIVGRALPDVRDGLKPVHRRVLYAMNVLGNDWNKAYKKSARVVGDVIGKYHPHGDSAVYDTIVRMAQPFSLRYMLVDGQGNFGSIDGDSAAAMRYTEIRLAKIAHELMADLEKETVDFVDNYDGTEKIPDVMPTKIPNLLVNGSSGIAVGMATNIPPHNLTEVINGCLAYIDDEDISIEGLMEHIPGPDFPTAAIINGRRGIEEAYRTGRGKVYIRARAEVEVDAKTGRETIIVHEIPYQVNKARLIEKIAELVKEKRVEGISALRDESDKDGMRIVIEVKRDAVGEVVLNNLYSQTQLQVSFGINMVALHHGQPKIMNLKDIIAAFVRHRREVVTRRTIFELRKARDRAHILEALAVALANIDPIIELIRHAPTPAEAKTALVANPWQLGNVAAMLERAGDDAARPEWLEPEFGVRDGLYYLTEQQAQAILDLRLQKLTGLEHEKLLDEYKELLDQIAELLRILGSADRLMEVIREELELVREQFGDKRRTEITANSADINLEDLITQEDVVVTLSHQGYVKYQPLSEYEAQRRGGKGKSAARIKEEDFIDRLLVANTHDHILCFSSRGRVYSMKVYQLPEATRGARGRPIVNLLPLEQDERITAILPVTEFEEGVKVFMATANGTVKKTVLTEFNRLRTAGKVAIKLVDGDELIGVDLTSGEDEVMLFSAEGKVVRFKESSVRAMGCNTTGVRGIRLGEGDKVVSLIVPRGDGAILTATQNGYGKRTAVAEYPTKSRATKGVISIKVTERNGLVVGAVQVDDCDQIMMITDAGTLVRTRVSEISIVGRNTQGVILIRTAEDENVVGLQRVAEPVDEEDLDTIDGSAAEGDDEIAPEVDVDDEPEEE

SMILES: COc1c(NC(=O)c2ccc(NC(=O)c3ccc(NC(=O)[C@H](Cc4cn[nH]n4)NC(=O)c4ccc(NC(=O)/C(C)=C/c5ccc(O)cc5)cc4)cc3)c(OC)c2O)ccc(C(=O)O)c1O [compound 2, reference compound]
- GIA: E. coli inhibition +AlbA ([1]; E. coli DSM 1116, 10 µM compound with equimolar AlbAS): −
- bioactivity in presence of AlbAS (in words) ([1]; E. coli, equimolar purified AlbAS): deactivated

SMILES: COc1c(NC(=O)c2ccc(NC(=O)c3ccc(NC(=O)[C@H](Cc4cn[nH]n4)NC(=O)c4ccc(NC(=O)/C(C)=C/c5ccc(O)cc5)cc4)cn3)c(OC)c2O)ccc(C(=O)O)c1O [compound 3, reference compound]
- MIC [2]: 0.031 µg/mL (≈ 0.035 µM)
- MIC [3]: 0.016 µg/mL (≈ 0.0181 µM)
- MIC [4]: 0.016 µg/mL (≈ 0.0181 µM)
- MIC [5]: 0.031 µg/mL (≈ 0.035 µM)
- MIC [6]: 0.25 µg/mL (≈ 0.282 µM)
- MIC [7]: 0.016 µg/mL (≈ 0.0181 µM)
- MIC [8]: 0.5 µg/mL
- CC50 ([9]; E. coli gyrase DNA cleavage, read-out: CC50 (concentration at half-maximum cleavage)): 66 nM
- Gyrase inhibition strong+ / weak − ([9]; qualitative DNA cleavage assay at 1 μM and 10 μM, in comparison to compound 16): +
- Rt (retention time) [10]: 8.15 min
